{"source": "patent US20080312187A1", "about": "“PHOSPHOINOSITIDE MODULATION FOR THE TREATMENT OF ALZHEIMER'S DISEASE” (priority 2005, published 2008)", "key": {"PIP2": {"system": "PIP2", "assay": "Steady-state PIP2 levels determined by HPLC in HeLa cells overexpressing APPsw", "assay_type": "cell-based", "conditions": "HeLa cells stably overexpressing Swedish variant of human APP", "from_the_text": "(§1) FIG. 2A-E. Changes in PIP2 levels correlate with Aβ42 biogenesis. PIP2 levels (A) and Aβ42 biogenesis (D) in HeLa cells overexpressing human APPsw treated with either PLC inhibitor edelfosine (EDEL) or its active analog miltefosine (MILT). PIP2 levels (B) and Aβ42 biogenesis (E) in HeLa cells overexpressing human APPsw treated with PLC activator m-3m3FBS (M3M). (C) Modulation of PIP2 levels correlates with Aβ42 biogenesis. HeLa cells stably overexpressing the Swedish variant of human APP were treated with either control (DMSO), PLC inhibitor edelfosine (EDEL) or its active analog miltefosine (MILT). Steady-state PIP2 levels were determined by HPLC."}, "α-secretase (sAPPα)": {"system": "α-secretase (sAPPα)", "assay": "Secreted APP ectodomain generated by α-secretase (sAPPα) in conditioned media of HeLa APPsw cells", "assay_type": "cell-based, human", "conditions": "HeLa cells stably expressing APPsw", "protocol": "(§2) FIG. 3A-F. PIP2 levels modulate Aβ biogenesis via two mechanisms. PIP2 levels modulate the release of soluble APP ectodomain into the medium. HeLa cells stably expressing APPsw were treated with either PLC inhibitors (EDEL, MILT) or PLC activator (M3M). Conditioned cell media were analyzed for secreted APP ectodomains generated by α-(sAPPα) (A) and β-secretase (sAPPβ) (B) cleavage. Aβ42 (D) and total Aβ biogenesis (C) in HEK293 cells transiently transfected with C99, C-terminal stub of APP that serves as a direct γ-secretase substrate, in the presence of PIP2 level modulator, EDEL. Aβ42 (F) and total Aβ biogenesis (E) in HEK293 cells transiently transfected with C99, C-terminal stub of APP that serves as a direct γ-secretase substrate, in the presence of PIP2 level modulator, M3M.\n(§3) PIP2 levels modulate Aβ biogenesis via two distinct mechanisms. The metabolites of PIP2, including IP3 and DAG, have been implicated in APP processing pathways (69, 70, 71). Under normal conditions, PIP2 hydrolysis (to generate IP3 and DAG) favors the generation of α-secretase-generated secreted APP ectodomain (sAPPα). […] To more clearly define the role of PIP2 in modulating γ-secretase activity (e.g. Aβ42), we next expressed an APP-C99 construct, an ectopic γ-secretase substrate which resembles β-secretase-generated, membrane-associated APP stub in heterologous cells."}, "β-secretase (sAPPβ)": {"system": "β-secretase (sAPPβ)", "assay": "Secreted APP ectodomain generated by β-secretase (sAPPβ) in conditioned media of HeLa APPsw cells", "assay_type": "cell-based, human", "conditions": "HeLa cells stably expressing APPsw", "protocol": "as §2, §3"}, "full-length APP (FL-APP)": {"system": "full-length APP (FL-APP)", "assay": "Steady-state full-length APP by Western blot in treated HeLa APPsw cells", "assay_type": "cell-based, human", "conditions": "Western blot analysis", "protocol": "Full length APP and total Aβ biogenesis are not affected in treated cells. Modulation of PIP2 levels correlates with Aβ42 biogenesis. HeLa cells stably overexpressing the Swedish variant of human APP were treated with either control (DMSO), PLC inhibitor edelfosine (EDEL) or its active analog miltefosine (MILT). Steady-state PIP2 levels were determined by HPLC."}, "Aβ42 [1]": {"system": "Aβ42", "assay": "Aβ42 biogenesis in HeLa cells overexpressing APPsw", "assay_type": "cell-based", "conditions": "HeLa cells stably overexpressing Swedish variant of human APP", "from_the_text": "as §1"}, "[2]": {"system": "presenilin/γ-secretase (Aβ42)", "assay": "Aβ42 biogenesis in HEK293 cells transiently transfected with C99 (direct γ-secretase substrate)", "assay_type": "cell-based", "protocol": "as §2, §3"}, "Aβ42 [3]": {"system": "Aβ42", "assay": "Aβ42 in cultured hippocampal primary neurons from Tg2576 mice", "assay_type": "cell-based, mouse", "conditions": "for Aβ42 in cultured hippocampal primary neurons: primary neurons from Tg2576 mice", "from_the_text": "FIG. 15A-B. (A) Rk1 and (20S)Rg3 decrease Aβ42 in cultured hippocampal primary neurons from Ad-model Tg2576 mice.\n(§4) Of note, γ-secretase inhibitors and non-steroidal anti-inflammatory drugs were not found to reverse these CCE defects (FIG. 17A-B). Ginsenosides such as (20S)Rg3 may therefore, unlike other Aβ42-lowering agents, also ameliorate the defect in CCE associated with Aβ. The following data support the role of PLCγ1 as a common upstream target modulating CCE as well as Aβ42 levels."}, "Aβ42 [4]": {"system": "Aβ42", "assay": "Aβ42 versus Aβ40 production in cell lines treated with ginsenosides", "assay_type": "cell-based", "conditions": "cell lines and primary neurons", "from_the_text": "as §4"}, "Aβ42 [5]": {"system": "Aβ42", "assay": "Aβ42 ELISA in Hela-APPsw cells transfected with siRNA against PLC isoforms and treated with Rg3", "assay_type": "cell-based, human", "protocol": "FIG. 18A-B. Role of PLC γ1 in Aβ42-lowering activity of ginsenosides. (A) Hela-APPsw cells transfected with specific siRNA against PLCβ3, PLC γ1 and PLC γ2 were treated with either DMSO or 15 μM Rg3 for 6 hr. The down regulation of PLCβ3, PLCγ1 and PLCγ2 was confirmed by Western blot using isoform-specific antibodies. (B) Effects of RNAi-mediated downregulation of PLC isoforms in the presence of Rg3 treatment. Aβ42 levels were measured in the conditioned media by ELISA. Aβ values are shown as percentage of control siRNA and are the mean ±s.d. from three independent experiments (*P<0.001, **P<0.01 using ANOVA followed by Dunnett's test). (77,78)\nHela cells stably expressing Swedish FAD mutant APP (Hela-APPsw cells) were treated with small interfering RNA (siRNA) selective against various PLCβ(β1-4) and PLCγ (γ1, 2) isoforms."}, "Tg2576 mice": {"system": "Tg2576 mice", "assay": "Aβ42/Aβ40 ratio in brains of Tg2576 mice", "assay_type": "in vivo, mouse", "conditions": "Tg2576 transgenic mice"}, "hippocampal slices": {"system": "hippocampal slices", "assay": "Long-term potentiation (fEPSP slope) in hippocampal slices treated with Aβ42", "from_the_text": "FIG. 5. […] The field excitatory post synaptic potential slope (FEPSP slope) in hippocampal slices that were untreated or treated with Aβ42 (Aβ) or Aβ42 and 20(S)Rg3 was monitored over time.\nPIP2 modulation rescues Aβ oligomer-induced synaptic dysfunction."}}, "note": "“Also recorded” adds a separate entry of the source. Where two headings read alike, the source gives them in different places."}
{"smiles": "Cc1cc(C)c(S(=O)(=O)Nc2cccc(C(F)(F)F)c2)c(C)c1", "note": "[m-3m3FBS]", "values": [{"measurement": "decrease in the steady state levels of PIP2", "setting": "PIP2", "value": "~11", "unit": "%"}, {"measurement": "sAPPα generation", "setting": "α-secretase (sAPPα)", "value": "decreases in sAPPα"}, {"measurement": "sAPPβ secretion", "setting": "β-secretase (sAPPβ)", "value": "dramatic increase"}, {"measurement": "effect on steady-state levels of full-length APP (FL-APP)", "setting": "full-length APP (FL-APP)", "value": "No significant effects"}, {"measurement": "increase in Aβ42", "setting": "Aβ42 [1]", "value": 37.2, "unit": "%"}, {"measurement": "effect on Aβ42 in C99-transfected cells", "setting": "[2]", "value": "Aβ42-promoting activity"}]}
{"smiles": "C=C(CCC=C(C)C)[C@H]1CC[C@]2(C)[C@@H]1[C@H](O)C[C@@H]1[C@@]3(C)CC[C@H](O[C@@H]4O[C@H](CO)[C@@H](O)[C@H](O)[C@H]4O[C@@H]4O[C@H](CO)[C@@H](O)[C@H](O)[C@H]4O)C(C)(C)[C@@H]3CC[C@]12C", "note": "[Rk1]", "values": [{"measurement": "Aβ42 in cultured hippocampal primary neurons", "setting": "Aβ42 [3]", "value": "decrease Aβ42"}, {"measurement": "Aβ37 and Aβ38", "setting": "Aβ42 [4]", "value": "concomitant increase"}, {"measurement": "Aβ42 production relative to Aβ40", "setting": "Aβ42 [4]", "value": "preferentially lower the production of Aβ42; also recorded: selectively decreases Aβ42 relative to Aβ40"}]}
{"smiles": "CC(C)=CCC[C@](C)(O)[C@H]1CC[C@]2(C)[C@@H]1[C@H](O)C[C@@H]1[C@@]3(C)CC[C@H](O[C@@H]4O[C@H](CO)[C@@H](O)[C@H](O)[C@H]4O[C@@H]4O[C@H](CO)[C@@H](O)[C@H](O)[C@H]4O)C(C)(C)[C@@H]3CC[C@]12C", "note": "[(20S)Rg3]", "values": [{"measurement": "Aβ42-lowering effect with PLCβ3 expression inhibited by siRNA", "setting": "Aβ42 [5]; 15 μM Rg3 for 6 hr, PLCβ3 siRNA", "value": "nearly abolished"}, {"measurement": "Aβ42-lowering effect with PLCγ1 expression inhibited by siRNA", "setting": "Aβ42 [5]; 15 μM Rg3 for 6 hr, PLCγ1 siRNA", "value": "nearly abolished"}, {"measurement": "reduction of Aβ42 generation when PLCγ1 levels are suppressed (dose-response experiments)", "setting": "Aβ42 [5]; PLCγ1 suppressed", "value": "far less effective"}, {"measurement": "Aβ42/Aβ40 ratio in cultured neurons", "setting": "Aβ42 [3]; cultured neurons", "value": "decreased Aβ42/Aβ40 ratio"}, {"measurement": "Aβ42 in cultured hippocampal primary neurons", "setting": "Aβ42 [3]", "value": "decrease Aβ42"}, {"measurement": "Aβ42/Aβ40 ratio in the brains", "setting": "Tg2576 mice", "value": "decreases the ratio of Aβ42 to Aβ40"}, {"measurement": "Aβ42/Aβ40 ratio in the brains", "setting": "Tg2576 mice; listed as Rg3", "value": "decreased Aβ42/Aβ40 ratio"}, {"measurement": "long-term potentiation (fEPSP slope) in the presence of Aβ42", "setting": "hippocampal slices", "value": "blocks Abeta oligomer-induced inhibition of long-term potentitation"}, {"measurement": "long-term potentiation (fEPSP slope) in the presence of Aβ42", "setting": "hippocampal slices; listed as 20(S)Rg3", "value": "increases LTP expression relative to untreated hippocampal slices"}, {"measurement": "long-term potentiation (fEPSP slope) in the presence of Aβ42", "setting": "hippocampal slices; listed as SMT-3", "value": "blocks Aβ42 oligomer-induced synaptic dysfunction"}, {"measurement": "Aβ37 and Aβ38", "setting": "Aβ42 [4]", "value": "concomitant increase"}, {"measurement": "Aβ42 production relative to Aβ40", "setting": "Aβ42 [4]", "value": "preferentially lower the production of Aβ42; also recorded: also selectively decreases Aβ42 relative to Aβ40"}]}
{"smiles": "CCCCCCCCCCCCCCCCCCOCC(COP(=O)([O-])OCC[N+](C)(C)C)OC", "note": "(stereo not shown) [edelfosine, Edelfosine]", "values": [{"measurement": "increase in the steady-state levels of PIP2", "setting": "PIP2; vs control (DMSO)", "value": "~10", "unit": "%"}, {"measurement": "decrease in the levels of Aβ42", "setting": "Aβ42 [1]; vs control (DMSO)", "value": 37.3, "unit": "%"}]}
{"smiles": "CCCCCCCCCCCCCCCCOP(=O)([O-])OCC[N+](C)(C)C", "note": "[miltefosine]", "values": [{"measurement": "sAPPα generation", "setting": "α-secretase (sAPPα)", "value": "increases in sAPPα generation"}, {"measurement": "sAPPβ secretion", "setting": "β-secretase (sAPPβ)", "value": "reduction in sAPPβ secretion"}]}
